{
  "source": "patent US11377423B2",
  "about": "“Inhibitors of histone deacetylase” (The Broad Institute, Inc., priority 2012, dated 2022)",
  "system": "Human islets",
  "assay": "Glucolipotoxicity-induced apoptosis in human islets, caspase-3 activity assay",
  "type": "cell-based",
  "conditions": "10 μM, 0.5 mM palmitate and 25 mM glucose, 72 h",
  "description": "Human islets were provided by the Integrated Islet Distribution Program administered by the City of Hope Hospital (IIDP: http://iidp.coh.org/). The average reported purity was 85%±5.2 and viability was 94%±0.6 (age 50±5 years, body mass index 31±2.7 kg/m2). Causes of death were head trauma (n=3), stroke and anoxia. Islets were dissociated and seeded (30,000 cells/well) into black optical 96-well plates (Corning Life Sciences) that coated with HTB-9 extracellular matrix as previously described. (Walpita, D., et al. (2012) J. Biomol. Screen. 17, 509-518.) The dissociated islet cell cultures were allowed to attach and grow in CMRL media in 10% FBS for 3 days before exposure to palmitate (0.5 mM) and high glucose (25 mM) in medium with 1% BSA and without FBS for 72 hours.\nCompounds of the invention protect against combined palmitate and high glucose induced apoptosis in INS-1E cells. […] Apoptosis was measured by caspase-3 activity assay.",
  "data": [
    {"smiles": "CC(=O)Nc1ccc(C(=O)Nc2ccc(F)cc2N)cc1", "note": "[Compound 1, 4-acetamido-N-(2-amino-4-fluorophenyl)benzamide]", "values": [
      {"measurement": "glucolipotoxicity-induced apoptosis in human islets", "value": "decreases glucolipotoxicity-induced apoptosis in human islets"}
    ]}
  ]
}
